Results: ChEMBL document CHEMBL1240346, “AC220 is a uniquely potent and selective inhibitor of FLT3 for the treatment of acute myeloid leukemia (AML)” (Blood, 2009)

Columns and labels:
[1] = test system: MV4-11; test: cells; conditions: Homo sapiens, MV4-11, 72 h
Description: Cytotoxicity against human MV4-11 cells after 72 hrs by cell titer-blue assay

[2] = in vivo; conditions: nu/nu, mouse, plasma, po, 10 mg/kg
[3] = in vitro; conditions: human, A375 cells
Description: Toxicity against human A375 cells after 72 hrs by cell titer-blue assay

[4] = target: Ephrin type-A receptor 7 (Homo sapiens, UniProt Q15375)
Description: Binding affinity to EPHA7

[5] = in vivo; conditions: nu/nu, mouse, po, 10 mg/kg
[6] = in vivo; conditions: nu/nu, mouse, po, 10 mg/kg; remark: listed apart in the source
[7] = in vitro; conditions: mouse, plasma
Description: Plasma protein binding in mouse

[8] = target: T1, Poly [ADP-ribose] polymerase tankyrase-2 (Homo sapiens, UniProt Q9H2K2)
T1 sequence (Q9H2K2 whole entry): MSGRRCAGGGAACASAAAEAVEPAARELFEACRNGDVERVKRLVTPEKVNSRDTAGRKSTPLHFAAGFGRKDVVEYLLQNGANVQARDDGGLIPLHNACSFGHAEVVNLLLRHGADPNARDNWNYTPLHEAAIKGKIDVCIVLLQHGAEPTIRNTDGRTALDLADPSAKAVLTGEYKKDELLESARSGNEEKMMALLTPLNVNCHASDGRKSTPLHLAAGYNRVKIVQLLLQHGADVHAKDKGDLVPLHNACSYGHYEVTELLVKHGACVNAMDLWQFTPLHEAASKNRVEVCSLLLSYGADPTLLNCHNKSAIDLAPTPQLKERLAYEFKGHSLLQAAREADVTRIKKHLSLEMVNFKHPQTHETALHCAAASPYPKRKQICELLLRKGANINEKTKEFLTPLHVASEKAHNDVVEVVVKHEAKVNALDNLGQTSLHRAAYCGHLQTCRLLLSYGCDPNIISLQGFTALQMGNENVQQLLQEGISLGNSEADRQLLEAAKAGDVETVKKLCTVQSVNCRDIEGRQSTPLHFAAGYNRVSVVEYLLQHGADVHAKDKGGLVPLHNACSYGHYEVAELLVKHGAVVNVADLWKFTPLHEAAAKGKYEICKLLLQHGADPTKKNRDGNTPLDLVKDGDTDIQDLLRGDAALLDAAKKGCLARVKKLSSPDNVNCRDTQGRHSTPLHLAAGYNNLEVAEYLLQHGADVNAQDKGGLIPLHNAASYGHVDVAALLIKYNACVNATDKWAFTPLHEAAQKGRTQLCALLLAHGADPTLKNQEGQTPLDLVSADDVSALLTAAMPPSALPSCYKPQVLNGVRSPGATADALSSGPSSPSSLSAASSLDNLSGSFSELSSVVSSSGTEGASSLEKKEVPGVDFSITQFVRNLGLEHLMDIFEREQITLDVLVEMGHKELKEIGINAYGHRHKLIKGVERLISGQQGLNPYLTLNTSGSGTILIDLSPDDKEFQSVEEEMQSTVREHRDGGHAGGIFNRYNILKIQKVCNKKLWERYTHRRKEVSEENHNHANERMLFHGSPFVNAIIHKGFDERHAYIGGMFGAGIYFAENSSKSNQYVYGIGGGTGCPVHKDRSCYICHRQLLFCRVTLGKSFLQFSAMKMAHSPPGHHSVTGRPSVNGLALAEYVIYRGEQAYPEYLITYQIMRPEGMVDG

Sequence of Ephrin type-A receptor 7 (Q15375 whole entry): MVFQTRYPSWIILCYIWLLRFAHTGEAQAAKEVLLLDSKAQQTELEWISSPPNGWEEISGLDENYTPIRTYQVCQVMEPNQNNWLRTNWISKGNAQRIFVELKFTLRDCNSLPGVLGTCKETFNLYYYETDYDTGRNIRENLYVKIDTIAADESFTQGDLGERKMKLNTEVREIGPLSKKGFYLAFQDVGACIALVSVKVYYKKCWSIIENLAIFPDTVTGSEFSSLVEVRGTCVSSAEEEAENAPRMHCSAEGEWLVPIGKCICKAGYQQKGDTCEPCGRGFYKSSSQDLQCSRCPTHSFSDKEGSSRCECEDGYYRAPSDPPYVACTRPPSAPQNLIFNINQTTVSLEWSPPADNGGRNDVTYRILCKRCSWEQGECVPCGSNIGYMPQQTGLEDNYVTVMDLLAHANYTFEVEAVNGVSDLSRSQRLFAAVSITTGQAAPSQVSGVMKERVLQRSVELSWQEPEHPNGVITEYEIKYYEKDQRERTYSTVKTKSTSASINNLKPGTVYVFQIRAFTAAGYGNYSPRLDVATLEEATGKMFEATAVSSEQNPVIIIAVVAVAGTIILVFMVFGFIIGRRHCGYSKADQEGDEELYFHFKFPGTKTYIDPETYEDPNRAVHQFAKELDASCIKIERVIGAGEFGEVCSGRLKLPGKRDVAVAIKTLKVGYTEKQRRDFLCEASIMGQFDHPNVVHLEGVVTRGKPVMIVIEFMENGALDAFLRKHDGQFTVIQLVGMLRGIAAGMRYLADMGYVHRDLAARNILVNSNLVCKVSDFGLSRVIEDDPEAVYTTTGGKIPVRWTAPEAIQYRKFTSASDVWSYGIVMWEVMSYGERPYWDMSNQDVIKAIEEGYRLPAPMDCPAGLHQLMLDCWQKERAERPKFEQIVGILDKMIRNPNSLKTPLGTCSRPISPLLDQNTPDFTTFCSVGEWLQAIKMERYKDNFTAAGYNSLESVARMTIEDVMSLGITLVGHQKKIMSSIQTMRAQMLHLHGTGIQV

SMILES	IC50 [1] [µM]	AUC(0-t) at 24 h [2] [µM·h]	IC50 at 72 h [3] [µM]	Kd [4] [µM]	Cmax [5] [nM]	Tmax [6] [min]	fraction unbound [7]	Kd [8] [µM]
CO[C@@H]1[C@H](N(C)C(=O)c2ccccc2)C[C@H]2O[C@]1(C)n1c3ccccc3c3c4c(c5c6ccccc6n2c5c31)C(=O)N[C@H]4O [CGP-52421]	0.064	8.4	0.53	> 10	2300	40.2	–	–
COc1cc2c(N3CCN(C(=O)Nc4ccc(OC(C)C)cc4)CC3)ncnc2cc1OCCCN1CCCCC1 [TANDUTINIB]	0.06	0.28	> 10	–	81	60	0.02	> 10
